According to patent EP0462123B1, “UV-ABSORBING COMPOUNDS AND COMPOSITIONS” (AUSTRALIAN INSTITUTE OF MARINE SCIENCE, priority 1989, dated 1990):

Tests used:
[1] = log P (octanol/water partition coefficient) by HPLC method of Leahy, Taylor and Wait; assay type: physicochemical; settings: octanol in conjunction with water
Source text: Water resistance of compounds of formula I may be evaluated by reference to the partition coefficient of the compounds using a non-polar solvent such as octanol in conjunction with water. The term log P, where P is the partition coefficient, where used herein refers to the log P value determined by the HPLC method of David E Leahy, Peter J Taylor and Alan R Wait, Ouant. Struct.-Act Relat., 8, 17-31 (1989) at pages 23 and 24. Log P may be used to directly compare the lipophilicity of a variety of molecules as described by Hansch, C., and Leo, A. J., Substituent Constants for Correlation Analysis in Chemistry and Biology, John Wiley, New York 1979.
Struct. Act Relat., 8, 17-31 (1989) and the results are recorded in Table 6.

[2] = E1%: relative UV absorbance of a 1% w/w solution; assay type: physicochemical; settings: relative measure of the UV absorbance of a 1% w/w solution of the compound
Source text: This example compares the ultraviolet light absorbing properties and water resistance properties of compounds of the invention.
E1% is a relative measure of the UV absorbance of a 1% w/w solution of the compound.

| SMILES | chromatographic logP [1] | E1% [2] |
| --- | --- | --- |
| CCC(=O)C1=CN(CC(C)C)CCC1(C)C [Compound 1, I-(2-Methylpropyl)-3-propionyl-4,4-dimethyl-1,4,5,6-tetrahydropyridine] | 3.2 | 131 |
| CC(=O)C1=CN(CC(C)C)CCC1(C)C [Compound 2, I-(2-Methylpropyl) -3-acetyl-4,4-dimethyl-1,4,5,6-tetrahydropyridine] | 2.7 | 140 |
| CC(C)CN1C=C(C(=O)C(F)(F)F)C(C)(C)CC1 [Compound 4, 1-(2-Methylpropyl) -3-trifluoroacetyl-4,4-dimethyl-1,4,5,6-tetrahydropyridine] | 3 | 112 |
| CCCCCCCCCCCCCCCCN1C=C(C(=O)CC)C(C)(C)CC1 [Compound 6, 1-Palmityl-3-propionyl-4,4-dimethyl-1,4,5,6-tetrahydropyridine] | 9.4 | 75 |
| CCCCC(CC)CN1C=C(C(=O)CC)C(C)(C)CC1 (centres unmarked) [Compound 8, 1-(2-Ethylhexyl)-3-propionyl-4,4-dimethyl-1,4,5,6-tetrahydropyridine] | 5.3 | 105 |
| CCCCC(CC)COC(=O)CCC(=O)C1=CN(CC)CCC1(C)C (centres unmarked) [Compound 13, 1-Ethyl-3(2-ethyl-hexylsuccinoyl)--4,4-dimethyl-1,4,5,6-tetrahydropyridine] | 6.9 | 87 |
| CCCCCCCC(=O)C1=CN(C2CCCCC2)CCC1(C)C [Compound 19, 1-Cyclohexyl-3-octanoyl-4,4-dimethyl-1,4,5,6-tetrahydropyridine] | 6.9 | 91 |
| CCCCCCCC(=O)C1=CN(C(C)(C)C)CCC1(C)C [Compound 21, 1-(1,1-Dimethyl-ethyl)-3-octanoyl-4,4-dimethyl-1,4,5,6-tetrahydropyridine] | 5.8 | 100 |
| CCCCCC(=O)C1=CN(C(C)(C)C)CCC1(C)C [Compound 22, 1-(1,1-Dimethyl-ethyl) -3-hexanoyl-4,4-dimethyl-1,4,5,6-tetrahydropyridine] | 4.8 | 110 |
| CC(C)CN1C=C(C(=O)CCCCC(=O)C2=CN(CC(C)C)CCC2(C)C)C(C)(C)CC1 [Compound 24] | 9.4 | 131 |

Next, values leading:

| chromatographic logP [1] | E1% [2] | SMILES |
| --- | --- | --- |
| 3.7 | 124 | CCCC(=O)C1=CN(CC(C)C)CCC1(C)C [Compound 3, 1-(2-Methylpropyl) -3-butyryl-4,4-dimethyl-1,4,5,6-tetrahydropyridine] |
| 5.8 | 100 | CCCCCCCC(=O)C1=CN(CC(C)C)CCC1(C)C [Compound 5, 1-(2-Methylpropyl) -3-octanoyl-4,4-dimethyl-1,4,5,6-tetrahydropyridine] |
| 4.8 | 110 | CCCCCCCC(=O)C1=CN(CC)CCC1(C)C [Compound 7, 1-Ethyl-3-octanoyl--4,4-dimethyl-1,4,5,6-tetrahydropyridine] |
| 5.8 | 100 | CCCCCCCCCC(=O)C1=CN(CC)CCC1(C)C [Compound 9, I-Ethyl-3-decanoyl--4,4-dimethyl-1,4,5,6-tetrahydropyridine] |
| 8.9 | 77 | CCCCCCCCCCCCCCCC(=O)C1=CN(CC)CCC1(C)C [Compound 10, 1-Ethyl-3-palmitoyl--4,4-dimethyl-1,4,5,6-tetrahydropyridine] |
| 7.4 | 87 | CCCCCCCCCCCCCC(=O)C1=CN(C)CCC1(C)C [Compound 11, 1-Methyl-3-myristoyl-4,4-dimethyl-1,4,5,6-tetrahydropyridine] |
| 7.4 | 87 | CCCCCCCC(=O)C1=CN(CCCCCCC)CCC1(C)C [Compound 12, 1-Heptyl-3-octanoyl-4,4-dimethyl--1,4,5,6-tetrahydropyridine] |
| 6.3 | 95 | CCCCCCCCCC(=O)C1=CN(CCC)CCC1(C)C [Compound 14, 1-Propyl-3-decanoyl-4,4-dimethyl-1,4,5,6-tetrahydropyridine] |
| 6.3 |  | CCCCCCCCCC(=O)C1=CN(C(C)C)CCC1(C)C [Compound 15, 1-(-Methylethyl)-3 decanoyl--4,4-dimethyl-1,4,5,6-tetrahydropyridine] |
| 6.9 | 91 | CCCCCCCCCC(=O)C1=CN(CC(C)C)CCC1(C)C [Compound 16, 1-(2-Methylpropyl) -3-decanoyl--4,4-dimethyl-1,4,5,6-tetrahydropyridine] |
| 6.3 | 95 | CCCCCCCCCCCC(=O)C1=CN(C)CCC1(C)C [Compound 17, 1-Methyl-3-lauroyl--4,4-dimethyl 4,5,6-tetrahydropyridine] |
| 6.3 | 95 | CCCCCCCCCCN1C=C(C(=O)CC)C(C)(C)CC1 [Compound 18, 1-Decyl-3-propionyl--4,4-dimethyl-1,4,5,6-tetrahydropyridine] |
| 6.9 | 91 | CCCCCCCCCC(=O)C1=CN(C(C)(C)C)CCC1(C)C [Compound 20, 1-(1,1-Dimethyl-ethyl)-3-decanoyl--4,4-dimethyl-1,4,5,6-tetrahydropyridine] |
| 5.3 | 105 | CCCCCCCC(=O)C1=CN(C(C)C)CCC1(C)C [Compound 23, 1-(1-Methylethyl)-3-octanoyl-4,4-dimethyl-1,4,5,6-tetrahydropyridine] |
